From paper PMC11258614 (2024)
Where a SMILES comes first, the peptide text is derived from it.

Columns and labels:
[1] = system: human c-Myc promoter G4 (DNA, G4) TGAGGGTGGGTAGGGTGGGTAA; experiment: UV melting at 295 nm; details: 30 mM sodium cacodylate pH 7.4, 0.5 mM EDTA, 4 μM DNA, DNA:peptide 1:50, derived from two Tm
[2] = system: human c-Myc promoter G4 (DNA, G4) TGAGGGTGGGTAGGGTGGGTAA; experiment: fluorescence titration of peptide with G4; details: 30 mM sodium cacodylate pH 7.4, 0.5 mM EDTA, 25 °C, printed Ka in μM, Ka or Kd ambiguous

ΔTm ([1]; 100 mM K+): 0.9 °C
ΔTm ([1]; 100 mM Na+): 3.7 °C
Ka ([2]; 100 mM K+): 0.1277 ± 0.073 µM
Ka ([2]; 100 mM Na+): 0.1369 ± 0.008 µM
SMILES: CC(C)C[C@H](NC(=O)[C@@H](N)CC(N)=O)C(=O)N[C@@H](CCC(=O)O)C(=O)N[C@@H](CCCCN)C(=O)N[C@@H](CCCCN)C(=O)N[C@@H](CCCCN)C(=O)N1CCC[C@H]1C(=O)NCC(=O)O (H-NLEKKKPG-OH)
